This is an account of results in patent US20240327335A1, “AMIDE COMPOUND HAVING IODOARYL OR IODOHETEROARYL, PREPARATION METHOD THEREFOR AND USE THEREOF” (CARDIOLINK SCIENCE (SHENZHEN) MEDICAL TECHNOLOGY …, priority 2022, published 2024).

Take `COC(CNC(=O)c1cc(I)cc(I)c1I)OC` [Compound I-1, N-(2,2-dimethoxyethyl)-2,3,5-triiodobenzamide]: the melting point (in general, the temperature, or range, at which the solid turns liquid) lay in the range of 180 to 182 °C.
Under `COC(CNC(=O)c1ccc(I)cc1)OC` [Compound I-6] stands 156 to 158 °C; under `COC(CNC(=O)c1cc(I)ccc1I)OC` [Compound I-7], 165 to 166 °C; under `O=CCNC(=O)c1cc(I)cc(I)c1I` [Compound I-8], 90 to 92 °C.
Under `COC(CNC(=O)c1ccc(I)cn1)OC` [Compound I-9] stands 178 to 180 °C; under `COC(CNC(=O)COc1c(I)cc(I)cc1I)OC` [Compound I-10], 170 to 171 °C; under `COC(CNC(=O)Cc1cc(I)cc(I)c1I)OC` [Compound I-11], 172 to 173 °C.
